Here are results for 19 compounds from PubChem BioAssay (NCI).

Test systems include DMS 114 small cell lung; DMS 273 small cell lung; M19-MEL melanoma; HOP-18 NSCLC; LXFL 529 NSCLC; BT-549 breast; MCF7 breast; T-47D breast; PC-3 prostate; NCI/ADR-RES ovarian; MDA-MB-435.
Experiment in all cases: inhibition of tumour cell growth, NCI panel, 48 h

“And” between values parts separate entries of the source, which are not always exact repeats. Equal values may be shown once.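 Where inhibition never reached the appropriate level, the endpoint shown equals the highest concentration tested. Otherwise, values were interpolated linearly from a five-concentration, 48-hour dose response in 96-well plates. Abbreviation: GI50, concentration required for 50% inhibition of growth. TGI denotes the concentration required for complete inhibition of growth.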

For `CS(=O)(=O)OCCN1CCN(C(=O)c2cccc3c(Nc4ccc(S(=O)(=O)N=C(N)N)cc4)c4ccccc4nc23)CC1`, the TGI in the assay on DMS 114 small cell lung, in the assay on DMS 273 small cell lung and in the assay with M19-MEL melanoma was over 100 µM each time.

Consider `O=C(Nc1cccs1)c1c(O)[nH]c(=S)[nH]c1=O`, for which the TGI in the assay on DMS 114 small cell lung and in the assay with HOP-18 NSCLC was over 100 µM each time.

Take `Clc1ccc(Cc2nc3ccccc3s2)c(Cl)c1`: the TGI with DMS 114 small cell lung amounted to 36.5 µM; with DMS 273 small cell lung, 33.6 µM; in the assay with M19-MEL melanoma, 30.5 µM; in the assay on LXFL 529 NSCLC, 31.1 µM; in the assay on HOP-18 NSCLC, 31.4 µM.

As for `CC1CCP(=O)(c2ccccc2)c2ccccc21` (stereo not given), the TGI in the assay with DMS 114 small cell lung is over 100 µM; in the assay on DMS 273 small cell lung it was 90.2 µM; with M19-MEL melanoma, 58.5 µM; in the assay on LXFL 529 NSCLC it was over 100 µM; with HOP-18 NSCLC, over 100 µM.

Consider `COc1ccc(NC(=O)C(=O)Cc2nc3ccc([N+](=O)[O-])cc3[nH]c2=O)c(OC)c1`, for which the TGI in the assay on DMS 114 small cell lung, in the assay on DMS 273 small cell lung, in the assay on M19-MEL melanoma, in the assay with LXFL 529 NSCLC and with HOP-18 NSCLC was over 100 µM throughout.

Take `COc1cc(/C=C\c2ccccc2)cc(OC)c1OC`: the TGI is over 28 µM in the assay on DMS 114 small cell lung; 11.5 µM in the assay with DMS 273 small cell lung; over 100 µM in the assay with M19-MEL melanoma; over 68.1 µM in the assay on LXFL 529 NSCLC; over 100 µM in the assay with HOP-18 NSCLC.

For `CCOC(=O)C1(Br)C(c2ccccc2)NC(=O)NC1(C)Br` (stereo not given), the TGI in the assay on DMS 114 small cell lung was over 100 µM; in the assay on DMS 273 small cell lung, over 100 µM; in the assay with BT-549 breast it was 65.9 µM; with M19-MEL melanoma, over 100 µM; with MCF7 breast, over 100 µM; in the assay with T-47D breast, over 100 µM. Also, the TGI in the assay with LXFL 529 NSCLC was over 100 µM; in the assay on PC-3 prostate, over 100 µM; in the assay with NCI/ADR-RES ovarian, 89.8 µM; with HOP-18 NSCLC it was over 100 µM; in the assay with MDA-MB-435, 57.3 µM. The GI50 in the assay with BT-549 breast was 14 µM; with MCF7 breast it was 28.1 µM; in the assay with T-47D breast it was 47.3 µM; in the assay with PC-3 prostate, 22.3 µM; in the assay with NCI/ADR-RES ovarian, 28.1 µM; with MDA-MB-435, 20.5 µM.

With `OC1c2ccccc2C2(O)C1C(c1ccccc1)C(c1ccccc1)C2(O)c1ccccc1` (stereo not given), the TGI in the assay with DMS 114 small cell lung was found to be 41.8 µM; with DMS 273 small cell lung, 23.5 µM; in the assay on M19-MEL melanoma, 38 µM; in the assay on LXFL 529 NSCLC, 54.6 µM; in the assay with HOP-18 NSCLC, 34 µM.

Regarding `O=C(Nc1cccc([N+](=O)[O-])c1)C(=O)C(C(=O)c1ccccc1-c1ccccc1)C1OC(=O)c2ccccc21` (stereo not given), the results for the TGI with DMS 114 small cell lung, with M19-MEL melanoma and in the assay with LXFL 529 NSCLC were 33.1 µM, 38.1 µM and 27.4 µM, respectively.

On to `CC1(C)C(=O)C(C)(C)C1=NN`, for which the TGI in the assay with DMS 114 small cell lung, with DMS 273 small cell lung, with M19-MEL melanoma and in the assay with LXFL 529 NSCLC was over 100 µM in each case.

`COc1ccccc1N=C(N)N/N=C/c1c[nH]c2ccccc12`: the TGI is 15.5 µM in the assay on DMS 114 small cell lung, 24.7 µM in the assay on M19-MEL melanoma, 13.1 µM with LXFL 529 NSCLC and 34 µM in the assay on HOP-18 NSCLC.

Regarding `O=C(Nc1ccc(Cl)cc1Cl)C(=O)C(C(=O)c1ccc2ccccc2c1)C1OC(=O)c2ccccc21` (stereo not given), the TGI in the assay on DMS 114 small cell lung was 46.2 µM; in the assay with M19-MEL melanoma, 30.3 µM; with LXFL 529 NSCLC, 17.6 µM.

Consider `CC12N=NN(c3ccc([N+](=O)[O-])cc3)C1(O)c1ccccc1C2=O` (stereo not given), for which the TGI with DMS 114 small cell lung, with DMS 273 small cell lung, with M19-MEL melanoma and with LXFL 529 NSCLC was over 100 µM throughout.

Consider `O=C(O)C1C2CCC(O2)C1C(=O)N1CCCCC1` (stereo not given), for which the TGI was 5.06 µM in the assay with DMS 114 small cell lung; 23.3 µM with DMS 273 small cell lung; 21.9 µM in the assay with M19-MEL melanoma; 16.9 µM in the assay with LXFL 529 NSCLC; 36.5 µM in the assay with HOP-18 NSCLC.

With `O=C(O)COc1ccc(O)c2c1C(=O)CCCC2=O`, the TGI in the assay with DMS 114 small cell lung, with DMS 273 small cell lung, with M19-MEL melanoma and in the assay with LXFL 529 NSCLC was over 100 µM throughout.

`COc1cc(/C=C\c2ccc(C)cc2)cc(OC)c1OC`: the TGI was 20.8 µM in the assay on DMS 114 small cell lung; 17.4 µM in the assay with DMS 273 small cell lung; over 100 µM with M19-MEL melanoma; over 100 µM with MCF7 breast; 46.1 µM in the assay on LXFL 529 NSCLC; over 100 µM in the assay on PC-3 prostate. Also, the TGI was 0.111 µM and 0.158 µM in the assay on NCI/ADR-RES ovarian; 0.0672 µM in the assay on MDA-MB-435. Moreover, the GI50 in the assay with M19-MEL melanoma is 0.0127 µM; in the assay on PC-3 prostate it was 0.0173 µM.

With `CCCCC1CC(c2cccc([N+](=O)[O-])c2)=NO1` (stereo not given), the TGI with DMS 114 small cell lung, with DMS 273 small cell lung, with M19-MEL melanoma, in the assay with LXFL 529 NSCLC and with HOP-18 NSCLC was over 100 µM each time.

Regarding `NC1CCCCC1.[O]=[Ge].[O]=[Ge].[O]=[Ge][OH].[O]=[Ge][OH]`, the TGI in the assay on DMS 114 small cell lung, with DMS 273 small cell lung, with M19-MEL melanoma, in the assay with LXFL 529 NSCLC and in the assay on HOP-18 NSCLC was over 100 µM throughout. Also, the GI50 in the assay with LXFL 529 NSCLC was over 100 µM.

In the case of `O=Cc1ccccc1OCCOc1cc(OCCOc2ccccc2C=O)c(OCCOc2ccccc2C=O)cc1OCCOc1ccccc1C=O`, the TGI in the assay on DMS 114 small cell lung, in the assay with DMS 273 small cell lung, in the assay with M19-MEL melanoma, in the assay with LXFL 529 NSCLC and in the assay with HOP-18 NSCLC was over 100 µM each time.
